Values quoted from earlier work, collected in publication PMC8244136, “Integrin αvβ6-targeted MR molecular imaging of breast cancer in a xenograft mouse model” (Cancer Imaging, 2021).

Assays:
integrin αvβ6 = settings: read-out: αvβ6 binding affinity IC50
Excerpt: (§1) Because of the significance of integrin αvβ6 in tumorigenesis and tumor progression, many pioneering experimental studies have focused on αvβ6-targeted ligands, including peptides and non-peptide inhibitors. More recently, a novel sub-nanomolar αvβ6-specific ligand, the nonapeptide cyclo [FRGDLAFp(NMe)K] (referred to as cFK-9) was identified, which is characterized by the RXDLXXL motif sequence.

αvβ3 = settings: selectivity against other integrins
Excerpt: as §1

[1] = Excerpt: as §1
αIIbβ3 = settings: selectivity against other integrins
Excerpt: as §1

α5β1 = settings: selectivity against other integrins
Excerpt: as §1

αvβ5 = settings: selectivity against other integrins
Excerpt: as §1

cyclo [FRGDLAFp(NMe)K] (head to tail) [cFK-9, sub-nanomolar αvβ6-specific ligand, cyclic RGD nonapeptide with RXDLXXL motif]
IC50 (integrin αvβ6): 0.00026 µM | IC50 (αvβ3): 0.632 µM | stability in human plasma [1]: very stable | IC50 (αIIbβ3): > 1 µM | IC50 (α5β1): 0.073 µM | IC50 (αvβ5): > 1 µM
